Assay results published in patent US9301952B2, “Diarylpyridine anti-viral compounds” (Kineta, Inc., priority 2010, dated 2016).
Where two headings read alike, the source gives them in different places.

Key:
[1] = MTS assay to determine cytotoxicity; type: cell-based, human; conditions: human; Huh7 cells, 24 hours
Description: (§1) MTS assay to determine cytotoxicity. Cultured human Huh7 cells are treated with increasing amounts of compound or equivalent amounts of DMSO diluted in media for 24 hours to see their effect on cell viability. The proportion of viable cells is calculated using a cell viability assay that measures conversion of a tetrazolium compound [[…]-5-(3-carboxymethoxyphenyl)-2-(4-sulfophenyl)-2H-tetrazolium, inner salt; MTS] to a colored formazan compound in live cells.
(§2) The conversion of MTS to formazan is detected in a 96-well microtiter plate reader, and the resulting optical densities can be plotted directly to estimate cell viability. […] Compounds were diluted to final concentrations of 0, 5, 10, 20, and 50 uM in media containing 0.5% DMSO. Negative control wells contain no compound and positive control for cytotoxicity is examined using an EMCV infection which causes 100% cytopathic effect. Each compound concentration and control is done in triplicate wells to generate error bars.

[2] = test system: Huh7 cells; assay: MTS assay to determine cytotoxicity; type: cell-based, human
Description: as §1, §2

[3] = test system: Influenza WSN strain
[4] = test system: Murine Encephalomyocarditis virus (EMCV); assay: EMCV antiviral assay (cell viability by MTS after infection); type: cell-based; conditions: Huh7 cells, EMCV 250 pfu
[5] = test system: IRF-3; assay: Activation of IRF-3; type: cell-based
[6] = test system: HCV2a; assay: HCV focus-forming assay (FFA) / HCV IF antiviral assay; type: cell-based, Hepatitis C virus
Description: FIG. 1 is a graph of an HCV focus-forming assay. Huh7 cells were pre-treated with compound KIN400 for 24 hours and infected with HCV2a at an multiplicity of infection (MOI) of 0.5 for 48 hours. HCV protein was detected by immunofluorescent staining with viral-specific serum and foci were normalized to negative control cells that were not drug treated (equal to 1).
HCV IF antiviral assay. Huh7 cells are seeded on a 96 well plate at 5×10^3 cells per well and cells are allowed to attach and grow for 24 hours. Compounds that have been diluted to 10 uM in media and contain a final concentration of 0.5% DMSO are added to each well and grown another 24 hours. The compound media solution is removed from the plate and stored in a clean tissue culture dish. Cell monolayers are washed with PBS and HCV2a virus is added at the stated MOI. Virus is incubated for 2-4 hours and then removed, the monolayers are washed with PBS and the compound solutions are replaced into each well.
The cells are grown overnight and then cells are fixed and stained for HCV proteins. All buffers and reagents are used from the Cellomics staining kits described above. Primary serum PHS#72 is diluted 1:3,000 in wash buffer and incubated at room temperature 1 hour. […] The number of infected cells is counted and representative images are saved.

[7] = test system: HCV RNA; assay: Decrease of HCV RNA; type: cell-based, Hepatitis C virus
Description: KIN400 compounds are tested for in vitro antiviral activity against HCV 2A and influenza A virus (A/WSN/33). Viral protein and RNA levels are assessed following drug treatment using the assays described above.

[8] = test system: Influenza WSN strain; assay: microbe, parasite or virus in culture; conditions: Influenza A virus, A549, read-out: Influenza nucleoprotein (NP) ELISA (IC50)

Q: With `N#Cc1c(-c2ccccc2)cc(-c2ccccc2)nc1SCC(=O)N1CCOCC1` [KIN400] as the compound, how does the CC50 at 24 h [1] read?
A: > 50 µM

Q: And the CC50 [2]?
A: > 50 µM

Q: And the “cytotoxicity (in words)” value [2]?
A: low cytotoxicity

Q: And the “Therapeutic index (TI) (CC50/IC50)” value [3]?
A: > 10

Q: And the “Therapeutic index (TI) (CC50/IC50)” value ([3]; listed as KIN100)?
A: 250

Q: And the “antiviral activity against influenza virus (in words)” value ([3]; influenza virus strain WSN)?
A: antiviral activity against influenza virus

Q: And the Cell viability post-infection ([4]; 5 μM)?
A: ~0.75

Q: And the Cell viability post-infection ([4]; 10 μM)?
A: ~0.95

Q: And the Cell viability post-infection ([4]; 20 μM)?
A: ~1.05

Q: What about the “activation of IRF-3” value [5] of the same compound?
A: activation of IRF-3

Q: What about the IC50 ([6]; Hepatitis C virus, Huh-7, Huh7 cells) of the same compound?
A: 5.1 µM

Q: What about the IC50 ([6]; Huh7 cells) of the same compound?
A: 5.1 µM

Q: What about the “Decrease HCV RNA” value [7] of the same compound?
A: Yes

Q: And the “Decrease HCV RNA” value ([7]; listed as KIN100)?
A: decrease in HCV RNA

Q: And the IC50 [8]?
A: 0.2 µM
